# Data as given in patent EP1928451B1, “METHODS FOR TREATING SUBSTANCE-RELATED DISORDERS” (SK Biopharmaceuticals Co., LTD, priority 2005, dated 2007).
# How the values were obtained:
# [1] = tested on: selectively-bred alcohol preferring (P) rats; assay: Chronic administration: two-bottle choice alcohol intake in alcohol preferring rats; format: in vivo
# Procedure: (§1) A compound of the present invention was tested in ethanol preferring rats, a model for acute and chronic drug addiction in humans using an adaptation of a published method (See, Rezvani, AH et al. Alcohol & Alcoholism, Vol. 25, No. 5, pp. 573-575, 1990, Rezvani AH, et al., Alcohol and Alcoholism (Oxford), 2000, 35(1), 76-83).
# (§2) An enantiomer of Formula (Ib) was orally administered in a dose range of from about 10 to about 90 mg/kg in test and control treatment groups of 10 rats per group over a period of 14 days. Test conditions reflected approaches for evaluating patterns of drinking (e.g., single or multiple events).
# Adult male selectively-bred alcohol preferring (P) rats were used. The selectively-bred alcohol-preferring (P) rats have been characterized and have been widely used to study the effects of different compounds on voluntary alcohol intake (Rezvani et al, 1990, 1991, 1992a, 1992b, 1999, 2000, 2002; 2003; Murphy et al, 1988; Overstreet et al., 1992, 1999; Li and McBride, 1995).
# Rats were housed individually in wire mesh cages under a constant room temperature of 22 +1 °C and 12:12 light-dark cycle (8:00-20:00, dark). Animal were fed Agway Prolab Rat/Mouse/ Hamster 3000 formula and water ad libitum.
# (§3) Establishment of baseline alcohol intake: Alcohol intake was determined using a standard two-bottle choice method (as described in Murphy et al. 1988; McBride et al. 1990; Rezvani et al. 1990, 1991, 1993, 1995, 1997, Rezvani and Grady, 1994).
# Animals were first given free access to water in a graduated Richter tube for 1 day. After the first day, the animals were given access to only a solution of 10% (v/v) ethanol for 3 consecutive days. During this period animals became accustomed to drinking from Richter tubes and to the taste and pharmacological effects of alcohol. Thereafter, they were given free access to both water and a solution of 10% alcohol for at least 3 consecutive weeks and throughout of the period of study. The rats had free access to food. Water and alcohol intake was recorded at 6 and 24 hour after the treatment, food intake was measured at 24 hour. Animal body weight was measured every day.
# The effect of chronic administration of a test compound on alcohol intake and tolerance to the anti-craving effects of the test compound was tested in naïve rats treated (via gavage tube) once a day either vehicle or test compound. A test compound dose of 45 mg/Kg was selected as an effective dose for chronic administration based on the results of the acute administration study phase. Themost effective dose was then used for the chronic adminstiration phase and administered for 14 consecutive days. Alcohol and water intake was recorded 6 and 24 h after each treatment administration and food intake was recorded at 24 hr.
# The results were presented as means ±SEM (Standard Error of the Means). Alcohol intake (g/kg) was calculated by multiplying the volume of alcohol consumed in mL by 10% and 0.7893 (a factor representing ethanol density)/body weight in kg. Alcohol preference, expressed as percentage, was calculated as follows (volume of alcohol consumed (mL)/total fluid intake (mL)) x 100 (as described in Rezvani and Grady,. 1994; Rezvani et al., 1997). Statistical differences between treatment and control groups were determined by using ANOVA and Turkey Student's t test for multiple comparisons.
# [2] = tested on: selectively-bred alcohol preferring (P) rats; assay: Acute administration: two-bottle choice alcohol intake in alcohol preferring rats; format: in vivo; conditions: dose of about 45 mg/kg and up, oral
# Procedure: as §1, §2
# Adult male selectively-bred alcohol preferring (P) rats were used. […]
# as §3
# Animals were first given free access to water in a graduated Richter tube for 1 day. […] Water and alcohol intake was recorded at 6 and 24 hour after the treatment, food intake was measured at 24 hour. Animal body weight was measured every day. […]
# The results were presented as means ±SEM (Standard Error of the Means). […] Statistical differences between treatment and control groups were determined by using ANOVA and Turkey Student's t test for multiple comparisons.
# [3] = BL (baseline, before treatment), drug group
# [4] = Day 1, 45 mg/Kg once a day via gavage
# [5] = Day 2, 45 mg/Kg once a day via gavage
# [6] = Day 3, 45 mg/Kg once a day via gavage
# [7] = Day 4, 45 mg/Kg once a day via gavage
# [8] = Day 5, 45 mg/Kg once a day via gavage
# [9] = Day 6, 45 mg/Kg once a day via gavage
# [10] = Day 7, 45 mg/Kg once a day via gavage
# [11] = Day 8, 45 mg/Kg once a day via gavage
# [12] = Day 9, 45 mg/Kg once a day via gavage
# [13] = Day 10, 45 mg/Kg once a day via gavage
# [14] = Day 11, 45 mg/Kg once a day via gavage
# [15] = Day 12, 45 mg/Kg once a day via gavage
# [16] = Day 13, 45 mg/Kg once a day via gavage
# [17] = Day 14, 45 mg/Kg once a day via gavage
smiles,measurement,setting,value
NC(=O)OC[C@@H](O)c1ccccc1Cl [Drug],tolerance for the test compound's affect on ethanol intake,[1]; 45 mg/Kg once a day for 14 consecutive days,without developing a tolerance
same,Alcohol Intake,[1]; [3],5.30 g/kg
same,Alcohol Pref,[1]; [3],71%
same,Body Weight,[1]; [3],384 g
same,Water Intake,[1]; [3],30 g/kg
same,Alcohol Intake,[1]; [4],1.61 g/kg
same,Alcohol Pref,[1]; [4],28%
same,Body Weight,[1]; [4],418 g
same,Water Intake,[1]; [4],62 g/kg
same,Alcohol Intake,[1]; [5],1.31 g/kg
same,Alcohol Pref,[1]; [5],24%
same,Body Weight,[1]; [5],415 g
same,Water Intake,[1]; [5],60 g/kg
same,Alcohol Intake,[1]; [6],1.37 g/kg
same,Alcohol Pref,[1]; [6],24%
same,Body Weight,[1]; [6],413 g
same,Water Intake,[1]; [6],60 g/kg
same,Alcohol Intake,[1]; [7],1.03 g/kg
same,Alcohol Pref,[1]; [7],16%
same,Body Weight,[1]; [7],415 g
same,Water Intake,[1]; [7],68 g/kg
same,Alcohol Intake,[1]; [8],1.24 g/kg
same,Alcohol Pref,[1]; [8],21%
same,Body Weight,[1]; [8],419 g
same,Water Intake,[1]; [8],68 g/kg
same,Alcohol Intake,[1]; [9],1.10 g/kg
same,Alcohol Pref,[1]; [9],21%
same,Body Weight,[1]; [9],421 g
same,Water Intake,[1]; [9],61 g/kg
same,Alcohol Intake,[1]; [10],1.85 g/kg
same,Alcohol Pref,[1]; [10],34%
same,Body Weight,[1]; [10],424 g
same,Water Intake,[1]; [10],48 g/kg
same,Alcohol Intake,[1]; [11],2.21 g/kg
same,Alcohol Pref,[1]; [11],35%
same,Body Weight,[1]; [11],426 g
same,Water Intake,[1]; [11],52 g/kg
same,Alcohol Intake,[1]; [12],2.19 g/kg
same,Alcohol Pref,[1]; [12],45%
same,Body Weight,[1]; [12],429 g
same,Water Intake,[1]; [12],40 g/kg
same,Alcohol Intake,[1]; [13],3.06 g/kg
same,Alcohol Pref,[1]; [13],52%
same,Body Weight,[1]; [13],431 g
same,Water Intake,[1]; [13],44 g/kg
same,Alcohol Intake,[1]; [14],2.93 g/kg
same,Alcohol Pref,[1]; [14],57%
same,Body Weight,[1]; [14],435 g
same,Water Intake,[1]; [14],30 g/kg
same,Alcohol Intake,[1]; [15],2.67 g/kg
same,Alcohol Pref,[1]; [15],58%
same,Body Weight,[1]; [15],436 g
same,Water Intake,[1]; [15],27 g/kg
same,Alcohol Intake,[1]; [16],2.37 g/kg
same,Alcohol Pref,[1]; [16],42%
same,Body Weight,[1]; [16],431 g
same,Water Intake,[1]; [16],48 g/kg
same,Alcohol Intake,[1]; [17],2.32 g/kg
same,Alcohol Pref,[1]; [17],40%
same,Body Weight,[1]; [17],437 g
same,Water Intake,[1]; [17],54 g/kg
same,effect on alcohol intake,[2],significant effect on alcohol intake
